This is an account of results in US20240156779A1, “SMALL MOLECULE ALLOSTERIC MODULATORS OF CLASS B GPCR, THE PTHR, AND METHOD TO IDENTIFY THEM” (University of Pittsburgh - Of the Commonwealth System of …, priority 2021, published 2024).

Data set [1] has as its target T1, PTHR (Homo sapiens, UniProt Q03431).
T1 sequence (Q03431 27-593): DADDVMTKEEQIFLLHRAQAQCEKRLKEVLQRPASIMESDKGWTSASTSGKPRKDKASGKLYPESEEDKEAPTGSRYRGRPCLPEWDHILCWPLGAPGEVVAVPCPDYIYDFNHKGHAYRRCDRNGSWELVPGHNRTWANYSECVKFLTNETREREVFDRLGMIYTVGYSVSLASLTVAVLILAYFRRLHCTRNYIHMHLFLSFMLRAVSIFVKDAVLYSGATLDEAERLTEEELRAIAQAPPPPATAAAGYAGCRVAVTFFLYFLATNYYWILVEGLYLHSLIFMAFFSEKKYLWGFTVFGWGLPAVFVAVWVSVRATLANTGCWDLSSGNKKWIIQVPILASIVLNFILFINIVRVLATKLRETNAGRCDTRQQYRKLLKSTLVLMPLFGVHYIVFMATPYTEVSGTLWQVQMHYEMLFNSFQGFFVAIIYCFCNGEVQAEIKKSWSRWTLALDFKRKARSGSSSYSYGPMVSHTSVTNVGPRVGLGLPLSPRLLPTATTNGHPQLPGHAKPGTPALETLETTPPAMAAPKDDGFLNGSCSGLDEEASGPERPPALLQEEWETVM
Conditions: cited from earlier work.

The test system of the next data set is recombinant PTHR. In words: Intracellular Ca2+ release (Fluo-4) in response to PTH. It counts as cell-based. Conditions: 100 nM PTH, 10 μM Pitt molecules.
Data set [2] concerns the target vasopressin type 2 receptor (V2R) (Homo sapiens, UniProt P30518). In words: vasopressin-mediated cAMP production. It counts as cell-based.
Data set [3] has as its target T2, PTHR association with G proteins (mGs, mGq) (Homo sapiens, UniProt Q03431).
T2 construct: expressed in transfected cells
T2 sequence (Q03431 27-593): T1 sequence (Q03431 27-593)
T2 sequence (P01270 32-65 partner limits assumed): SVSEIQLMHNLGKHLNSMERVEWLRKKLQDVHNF
In words: FRET time courses of PTHR-CFP interaction with mini-Gs and mini-Gq. It counts as cell-based. The note with it: PTH-induced.

The target of data set [4] is T1, PTHR. In words: Radioligand receptor binding, membranes of GP-2.3 cells. On the set-up: expressed in transfected cells; host or cells: HEK-293-derived GP-2.3 cells (membranes).
The target of another data set is T3, human PTHR mutant R181A (Homo sapiens, UniProt Q03431, R181A).
T3 construct: HA
T3 sequence (Q03431 27-593 R181A): T1 sequence (Q03431 27-593) with R155A
In words: PTH-induced cAMP signaling of receptor mutant R181A. It counts as cell-based.

In data set [5] the target is T1, PTHR. In words: PTH-induced cAMP time courses (FRET sensor) in HEK293 cells stably expressing PTHR. Conditions: for inhibition of PTH-mediated cAMP production compared with Pitt12: 10 μM compound. The class given is cell-based. Set-up: expressed in transfected cells.
Data set [6] has as its target b2-adrenergic receptor (b2AR) (Homo sapiens, UniProt P07550). In words: cAMP production mediated by b2AR agonist isoproterenol. The note with it: in response to isoproterenol. It counts as cell-based.
The target in data set [7] is T4, human PTH type 1 receptor (hPTHR) (Homo sapiens, UniProt Q03431).
T4 construct: expressed in transfected cells
T4 sequence (Q03431 27-593): T1 sequence (Q03431 27-593)
In words: Concentration-response curves for cAMP (GloSensor) by PTH with Pitt molecules. Conditions: range of Pitt concentrations. It counts as cell-based.

A further data set has as its target T5, human PTHR mutant E180A (Homo sapiens, UniProt Q03431, E180A).
T5 construct: HA
T5 sequence (Q03431 27-593 E180A): T1 sequence (Q03431 27-593) with E154A
In words: PTH-induced cAMP signaling of receptor mutant E180A. It counts as cell-based.

[8] abbreviates: 20 μmol/kg, 3 h after injection.

Residue numbers refer to the chain shown, from its start. Entries after “also recorded” stand apart in the source; their conditions may differ.

Sequence of b2-adrenergic receptor (b2AR) (P07550 whole entry, species assumed): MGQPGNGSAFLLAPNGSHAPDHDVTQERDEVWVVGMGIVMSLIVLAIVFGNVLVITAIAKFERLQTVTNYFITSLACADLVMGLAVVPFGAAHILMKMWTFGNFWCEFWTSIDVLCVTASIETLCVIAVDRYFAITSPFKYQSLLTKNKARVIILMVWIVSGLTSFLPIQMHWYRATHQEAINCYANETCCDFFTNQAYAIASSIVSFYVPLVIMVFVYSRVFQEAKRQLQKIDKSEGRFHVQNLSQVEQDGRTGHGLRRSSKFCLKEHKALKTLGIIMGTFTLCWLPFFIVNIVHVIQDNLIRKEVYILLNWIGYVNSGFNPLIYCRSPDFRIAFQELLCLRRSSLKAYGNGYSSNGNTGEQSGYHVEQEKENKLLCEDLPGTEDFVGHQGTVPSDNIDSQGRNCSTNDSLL
Sequence of vasopressin type 2 receptor (V2R) (P30518 whole entry, species assumed): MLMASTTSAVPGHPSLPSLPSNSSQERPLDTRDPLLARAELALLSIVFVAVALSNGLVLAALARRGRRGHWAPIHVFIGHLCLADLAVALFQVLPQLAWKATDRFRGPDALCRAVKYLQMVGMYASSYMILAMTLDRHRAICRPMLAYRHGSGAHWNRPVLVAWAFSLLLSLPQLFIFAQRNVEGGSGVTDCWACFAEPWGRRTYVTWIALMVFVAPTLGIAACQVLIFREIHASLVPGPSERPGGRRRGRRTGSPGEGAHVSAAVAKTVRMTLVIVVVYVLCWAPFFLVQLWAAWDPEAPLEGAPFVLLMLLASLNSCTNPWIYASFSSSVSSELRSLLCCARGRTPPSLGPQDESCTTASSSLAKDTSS

In the case of `CCCCn1c(O)c(C(=N)N)c(=O)n(CCCC)c1=O` [AH-3960], the “mode of action at PTHR” value at PTHR [1] is on record as “weak agonist”.
Turning to `Cc1cc(N2C(=O)NC(=O)C2(C)C)cc(C)c1CCS(=O)(=O)N1CCC2(CC1)N=C(c1ccc(OC(F)(F)F)cc1)NC2=O` [PCO371], the “mode of action at PTHR” value on PTHR [1] is listed as “orthosteric agonist”.
With `COc1ccc([C@@H]2CN(C(=O)OCC3c4ccccc4-c4ccccc43)C[C@H]2C(=O)O)cc1` [Pitt12], in the data set on recombinant PTHR, the “PTH-mediated release of stored intracellular Ca2+” value was “noticeable reduction”. For the same compound, the “effect on vasopressin-mediated cAMP” value in [2] is reported as “lack of effect”. Also, in [3], the “G proteins association with the receptor” value is “decrease in both the kinetics and magnitude”. In addition, the “inhibitory binding constant (Ki), RG state” value on PTHR [4] (G-protein coupled (RG) state) was “in the μM range”. On PTHR [4] (G-protein uncoupled (R0) state, with GTPgS), the “inhibitory binding constant (Ki), R0 state” value is reported as “in the μM range”. Also, the “sensitivity of R181A mutant to modulation of PTH-induced cAMP” value on human PTHR mutant R181A is recorded as “lost their ability to respond to negative modulation”. Besides, in the data set with C57BL/6 mice (setting [8]), the “serum Ca2+ (sCa2+) level, compound alone” value is “significantly reduced” and the “serum phosphate (sPi) level, compound alone” value is “trend of reducing”. For the same compound, the “BUN/creatine ratio (kidney function and hydration status)” value in the data set with C57BL/6 mice (mouse, in vivo) was “lack of significant changes”. Moreover, on PTHR [5] (1 nM PTH), the “alteration of plasma membrane cAMP” value is listed as “≈ 30%” and the “reduction of endosomal cAMP production” value is given as “≈ 70%”. Besides, the “effect on PTH-induced cAMP production (AUC of time course)” value at PTHR [5] (1 nM PTH co-applied with 10 μM compound, HEK293-PTHR) is recorded as “distinguishably high potential to elicit negative effects”. For the same compound, the “sustained cAMP response on blockade of receptor internalization” value on PTHR [5] (cells expressing DynK44A, PTH with Pitt coapplied) is “moderately affected”. For the same compound, in [6], the “effect on β2AR-mediated cAMP production” value is recorded as “no effect”. Also, the “effect on efficacy (Emax) of PTH to mediate cAMP increase” value in data set [7] was “blocked cAMP production by PTH; also recorded: marked reduction in efficacy”. Further, the “sensitivity of E180A mutant to modulation of PTH-induced cAMP” value on human PTHR mutant E180A is recorded as “lost their ability to respond to negative modulation”.
As to `O=C(O)[C@@H]1CN(C(=O)OCC2c3ccccc3-c3ccccc32)C[C@H]1c1ccccc1` [Pitt41], the “inhibition of PTH-mediated cAMP production compared with Pitt12” value on PTHR [5] (HEK293-PTHR) is listed as “more efficacious than Pitt12”.
Consider `Cc1ccc([C@@H]2CN(C(=O)OCC3c4ccccc4-c4ccccc43)C[C@H]2C(=O)O)cc1` [Pitt42], for which the “inhibition of PTH-mediated cAMP production compared with Pitt12” value against PTHR [5] (HEK293-PTHR) is on record as “more efficacious than Pitt12”.
